Where only a bound is given, the exact number is not on record here.

A word on the melting point: it is the temperature, or range, at which the solid turns liquid. `C=C(CN(C)C)C(O)c1ncc2c(c1O)COC2c1ccc(F)cc1` (centres undefined) had a melting point of 198 °C. `CCOC(=O)c1nnc(C(=O)OCC)c2c1[nH]c1ccccc12` gave a melting point of 151 to 152 °C. As for `COc1ccc(C(=O)C=CC(=O)O)c(OC)c1OC`, the figure is 100 °C; as for `O=C(Nc1cccc([N+](=O)[O-])c1)c1cccnc1Oc1cccc(C(F)(F)F)c1`, 90 to 95 °C. As for `COC(=O)COc1c(Cl)cc(C(=O)CN2CCN(c3ccncc3)CC2)cc1Cl`, the figure is 149 to 150 °C; as for `Cc1nn(-c2ccccn2)c2[nH]c3ccc(S(C)=O)cc3c(=O)c12` (centres undefined), 268 to 269 °C; as for `COc1ccc(Nc2ccc(Nc3ccnc4cc(-c5ccc(OC)nc5)sc34)cc2)cc1`, 175 to 184 °C. On to `O=c1[nH]c2ncc(-c3ccc(-c4nc5ccccc5[nH]4)cc3)nc2n1CC1CCOCC1`, for which the melting point was > 300 °C.

In turn, `COc1ccc2c(c1)C(=O)C(=Cc1ccncc1)CO2` returned a melting point of 170 to 172 °C.

Regarding `COC1=CCc2cccc(NC(C)=O)c2C1`, the melting point lay within 191 to 192 °C. The same measure for `Cn1cc(Cl)cc(Br)c1=O`: 162 to 163 °C; for `CC(C)(C)c1cc(Oc2c(Cl)cc(C(F)(F)F)cc2Cl)n[nH]1`: 170 to 172 °C. As for `N#CC(N)=C(C#N)NCc1ccc(Cl)c(Cl)c1`, the melting point is 158 to 160 °C. Regarding `O=C(Nc1ncc(C(=O)NCCO)s1)c1cn(Cc2ccc(Cl)c(Cl)c2)nn1`, the melting point amounted to 275 °C. `COc1ccccc1NC(=O)Nc1ccc(N2CCN(C(=O)Nc3ccc(OCCO)cc3C(F)(F)F)CC2)cc1` yielded a melting point of 118 to 120 °C. As for `O=C(NCc1ccccc1Cl)c1cccnc1Oc1cccnc1`, the figure is 174 to 176 °C; as for `N#Cc1c(N2CCN(C(=O)c3ccco3)CC2)c2cc(Cl)ccc2n(Cc2ccc(F)cc2)c1=O`, 253 °C; as for `Cc1cc(Cl)ccc1Oc1ccc(NC(=O)N2CCc3ccccc3CC2)cn1`, 151 to 153 °C. As for `COc1c2c(cc3ccc(=O)oc13)CC(C)O2` (centres undefined), the figure is 115 to 116 °C; as for `CCOC(=O)c1cccc(-c2ccc(Cl)c3cc(CBr)sc23)c1`, 143 to 144 °C; as for `C=C(Cc1ccc(-c2cccc3cncn23)cc1)C(=O)O`, 171 to 172 °C. As for `COc1ccc(Cl)cc1C(=O)NCCc1ccc(C=C(C)C(=O)O)cc1`, the figure is 188 to 191 °C. The molecule `CC#CCOc1ccc(SC(C(=O)NO)c2ccc(Cl)cc2)cc1` (centres undefined) had a melting point of 152 °C.

`CCCCCCCNC(=O)Nc1ccccc1C=Cc1cc(C(C)(C)C)c(O)c(C(C)(C)C)c1` showed a melting point of 162 to 164 °C. The same measure for `CCCCCCCCN(CCCCCCCC)C(=O)Nc1ccccc1CCc1cc(C(C)(C)C)c(O)c(C(C)(C)C)c1`: 55 to 60 °C; for `CC(O)c1ccc(NS(C)(=O)=O)c(Nc2ccc(F)cc2F)c1` (centres undefined): 192 to 193 °C; for `COc1nncc(-c2ccccc2)n1`: 73 to 74 °C.

`CCCC[C@H](NC(=O)[C@H](CC(C)C)NC(=O)c1ccc(F)cc1F)C(=O)CSCc1ccco1` showed a melting point of 97 to 98 °C. Molecule `CCOC(=O)c1cnn(-c2ccc(N)cc2)c1C(F)(F)F` registered a melting point of 102 to 103 °C. As for `O=C(O)/C=C/c1cc(OC2CCOCC2)nn1Cc1ccc(Cl)cc1Cl`, the figure is 191 to 192 °C. Molecule `CCn1nc2c(N)nc3ccccc3c2c1CC(C)(C)C` came in with a melting point of 240 °C. For the molecule `C=C(c1ccc(OC)c(N)c1)c1ccc(OC)c(OCC)c1`, the melting point is 91 to 93 °C. As for `CCNc1cc(O)c(C)cc1Cl`, the figure is 205 °C; as for `C#CCOc1cc(-c2nn(C)c(S(C)=O)c2C)c(F)cc1Cl` (centres undefined), 93 to 96 °C.

In turn, `CCOP(=O)(CCOCn1cnc2c(OC)ncnc21)OCC` showed a melting point of 140 to 141 °C. `CC(C)(C)OC(=O)[C@@H]1CCC(=O)N1Cc1ccccc1`: the melting point fell in the range of 59 to 63 °C. Take `Cc1nc2c(OCc3ccccc3)nccc2n1C`: the melting point lay in the range of 115 to 116 °C. As for `CC(=O)n1cc(Cl)c(-c2cccc(Cl)c2)c1`, the figure is 88 to 90 °C; as for `O=C(O)CCc1c(C(=O)O)[nH]c2cc(-c3ccccc3)cc(-c3ccccc3)c12`, 243 to 245 °C; as for `CN=Cc1cccc(C(=O)NC)c1`, 87 °C.

`COc1cc(COc2nn(-c3ccccc3)cc2CC(=O)N2CCOCC2)ccc1OCc1nc(-c2ccco2)oc1C`: the melting point was in the range of 132 to 133 °C. As for `N#CCC1CCSc2sccc2C1=O` (centres undefined), the melting point is 68 to 70 °C. The same measure for `CC(Sc1cc2cc(O)ccc2[nH]1)(C(=O)O)c1ccccc1` (centres undefined): 180 to 182 °C. The same measure for `CCCCCNC(=O)N(C)c1cccc(-c2ccc(CCC(=O)O)cc2OCCOCC)c1`: 61 to 62 °C; for `COC[C@H]1CCCN1C(=O)c1ccc(-c2[nH]nc3c2C(=O)c2c(NC(=O)NN4CCOCC4)cccc2-3)s1`: 262 °C. `CCCn1c(=O)c2[nH]c(/C=C/c3cc(OC)cc(OC)c3)nc2n(CCC)c1=O`: the melting point is 249 to 250 °C.

As to `CC(c1ccc(-c2ccccc2)c(F)c1)c1csc(NC(=O)c2ccccc2)n1` (centres undefined), the melting point is 147 to 148 °C.

Molecule `Cc1ccccc1NC(=O)CN1C(=O)c2ccccc2C1=O` displayed a melting point of 254 °C. `O=C1N(CC2CCCO2)c2cccc(Cl)c2C12COc1cc3c(cc12)CCO3` (centres undefined) had a melting point of 78 to 82 °C. Molecule `CC(C)c1nn(-c2ccc(C(F)(F)F)cn2)cc1CCCCOc1nn(-c2ccccc2)cc1CC(=O)O` displayed a melting point of 119 to 120 °C. As for `CCN(CC)C(=O)Cc1ccc(O)c(C(C)(C)C)c1`, the figure is 124 to 126 °C; as for `CCOC(=O)CN1C(=O)[C@H](NC(=O)[C@H](COCc2ccccc2)NC(=O)OC(C)(C)C)CSc2ccccc21`, 52 to 54 °C; as for `CC(=O)NCCNC(=O)c1ccc(Br)o1`, 175 to 176 °C. As for `Cc1c(CCCCCC(=O)O)cccc1C(=O)c1ccc(Cl)cc1`, the figure is 82 °C; as for `CC(=O)NC1Cc2ccc(NC(=O)c3ccccc3Br)cc2C1` (centres undefined), 216 to 217 °C; as for `COC(=O)CC[C@H](NC(=O)c1cc(CCC2CNc3nc(N)nc(O)c3C2)c[nH]1)C(=O)OC` (some centres undefined), 151 to 153 °C. The same measure for `CC(=O)NC(COC(F)F)C(=O)NCc1ccccc1` (centres undefined): 173 °C; for `CCOC(=O)c1c[nH]cc1-c1ccccc1[N+](=O)[O-]`: 159 to 161 °C; for `N#CC1=Nc2cc(Cl)ccc2Oc2ccccc21`: 161 to 168 °C. Regarding `Cc1ccc(S(=O)(=O)NCC[C@@H](NS(=O)(=O)c2ccc(C)cc2)C(=O)NO)cc1`, the melting point was in the range of 152 to 153 °C. The molecule `NC(=O)O[C@@](c1cc(F)cc(Cl)c1)(c1cc2cn[nH]c2cc1F)[C@@H]1CCCCN1` returned a melting point of 220 °C. The molecule `CCCOc1ccccc1C1=NC(=O)C2=CN=NC2=N1` gave a melting point of 170 to 171 °C. The same measure for `O=C1NN(c2ccc(Cl)cc2)C(=O)C1=CNc1ccccc1`: 288 to 290 °C; for `CNC(NCc1ccc(Cl)nc1)=C(C(=S)NS(C)(=O)=O)[N+](=O)[O-]`: 129 to 131 °C. The same measure for `CC(Sc1cc2ccccc2[nH]1)(C(=O)OCc1ccccc1)c1ccccc1` (centres undefined): 102 to 103 °C. As for `CCCCc1nc2cc(C(=O)O)ccc2n1Cc1ccc(-c2ccccc2-c2nnn[nH]2)cc1`, the figure is 180 to 182 °C; as for `COc1ccc(CSc2nnc(-c3ccc4occc4c3)o2)cc1`, 124 to 125 °C.

With `Cc1cc(-c2cnn3c(C(F)(F)F)cc(-c4ccc(C(F)(F)F)c(C)c4)nc23)cc(C)n1`, the melting point came out at 253 °C. On to `Cc1cc(-c2ccc(Cl)c(C)c2)nc(-c2cccc(-c3ccc(S(N)(=O)=O)s3)c2)n1`, for which the melting point is 240 °C.

As for `NCC(O)c1cc(Cl)cc(Cl)n1` (centres undefined), the melting point fell in the range of 117 to 118 °C. Regarding `Cc1cc(C)c2ncc(NC(=O)c3cc(C(C)C)c(O)c(C(C)C)c3)c(-c3ccccc3Cl)c2c1`, the melting point lay within 237 to 238 °C. `Cc1cccc(CC(=S)Nc2ccccc2C(=O)O)c1` displayed a melting point of 148 to 150 °C. As to `CC(C)OC(=O)Cn1c(=O)n(C)c(=O)n(-c2ccc(F)cc2Cl)c1=O`, the melting point was in the range of 127 to 128 °C. The same measure for `CCC(=NOC)c1cccc(Oc2nc(OC)cc(OC)n2)c1C(=O)OC`: 75 to 77 °C; for `CNC(=O)CCN1c2ccccc2N2CCc3cccc(c32)C1C` (centres undefined): 143 to 145 °C. Take `CC(C)(C)c1cc(NS(C)(=O)=O)cc(C(C)(C)C)c1O`: the melting point lay in the range of 149 to 151 °C. As for `CC(c1ccc(Br)cc1)N(O)C(=O)NCCO` (centres undefined), the figure is 117 to 119 °C; as for `CC1CCC(NC(=O)NS(=O)(=O)c2ccc(CCNC(=O)N3C(=O)c4ccccc4C3C)cc2)CC1` (centres undefined), 212 to 214 °C; as for `N#Cc1cnn(-c2ncc(C(F)(F)F)cc2Cl)c1C=CC(=O)O`, 225 to 228 °C. As for `CCOC(=O)Cn1cc(I)c(NC(=O)c2ccccc2)nc1=O`, the figure is 154 to 155 °C.

`O=C(O)c1cc2ccccc2nc1C(=O)O`: the melting point is 271 to 277 °C.

The molecule `CCC12CCC3C4CCC(=O)C=C4CCC3C1CCC2OC(=O)CC(C)C` (centres undefined) returned a melting point of 82 to 89 °C.

In the case of `CCN(CC)C(=O)Nc1ccc(S(=O)(=O)N2C(=O)C(NCCO)(c3ccccc3Cl)c3cc(Cl)ccc32)cc1` (centres undefined), the melting point lay in the range of 192 to 193 °C. As for `CN(C)Cc1cc(C(=O)c2ccc3ccccc3c2)cc(C(C)(C)C)c1O`, the figure is 162 to 164 °C; as for `COc1ccc(Cc2oc3c(Cl)cc(CCC(=O)O)c(O)c3c2C)cc1`, 149 to 151 °C. The same measure for `O=C(CCCCCCCCc1ccc(Cl)cc1)NO`: 48 to 50 °C. As for `COC(=O)c1cc(N)c(N)cc1OC`, the melting point is > 300 °C.

For `CC(C)(C)n1ncc(C(=O)c2ccc(S(C)(=O)=O)c(-c3ccccc3)c2Cl)c1O`, the melting point fell in the range of 262 to 264 °C. As for `Nc1c([N+](=O)[O-])cnn1-c1c(Cl)cc(C(F)(F)F)c(F)c1Cl`, the figure is 156 °C.

These data come from a melting point compilation (Tetko et al.; mined from patent text by program, amines drawn as free bases though some values may be those of a salt).
